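Test compounds were applied to cells in 96-well plates for 48 hours at 5 doses. GI50 marks 50% less growth.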 Calls of active or inactive are those of the source. No stated cut-off is given here; in the data, active = GI50 up to about 1.1 µM and inactive = higher.
How the values were obtained:
Assay in all cases: NCI-60 cell line screen, 48 h
SK-MEL-28 = tested on: SK-MEL-28
MDA-MB-231 = tested on: MDA-MB-231
IGROV-1 = tested on: IGROV-1
DU-145 = tested on: DU-145
PC-3 = tested on: PC-3
NCI-H460 = tested on: NCI-H460
CCRF-CEM = tested on: CCRF-CEM
HOP-62 = tested on: HOP-62
SNB-19 = tested on: SNB-19
NCI-H23 = tested on: NCI-H23
ACHN = tested on: ACHN
MOLT-4 = tested on: MOLT-4
786-0 = tested on: 786-0
RXF 393 = tested on: RXF 393
UO-31 = tested on: UO-31
HCT-116 = tested on: HCT-116
EKVX = tested on: EKVX
SNB-75 = tested on: SNB-75
OVCAR-8 = tested on: OVCAR-8
UACC-62 = tested on: UACC-62

| SMILES | GI50 (SK-MEL-28) | GI50 (MDA-MB-231) | GI50 (IGROV-1) | GI50 (DU-145) | GI50 (PC-3) | GI50 (NCI-H460) | GI50 (CCRF-CEM) | GI50 (HOP-62) | GI50 (SNB-19) | GI50 (NCI-H23) | GI50 (ACHN) | GI50 (MOLT-4) | GI50 (786-0) | GI50 (RXF 393) | GI50 (UO-31) | GI50 (HCT-116) | GI50 (EKVX) | GI50 (SNB-75) | GI50 (OVCAR-8) | GI50 (UACC-62) |
| --- | --- | --- | --- | --- | --- | --- | --- | --- | --- | --- | --- | --- | --- | --- | --- | --- | --- | --- | --- | --- |
| CN1CCN(c2n[nH]c(=O)c3c2nnn3C2CCCCC2)CC1 | > 100 µM (inactive) | > 100 µM (inactive) | > 100 µM (inactive) | > 100 µM (inactive) | > 100 µM (inactive) | > 100 µM (inactive) | > 100 µM (inactive) | > 100 µM (inactive) | > 100 µM (inactive) | > 100 µM (inactive) | > 100 µM (inactive) | > 100 µM (inactive) | > 100 µM (inactive) | > 100 µM (inactive) | > 100 µM (inactive) | > 100 µM (inactive) | > 100 µM (inactive) | > 100 µM (inactive) | > 100 µM (inactive) | > 100 µM (inactive) |
| CCN(CC)c1cc2c3c(c1)CCCN3CCC2 | > 10 µM (inactive) | > 10 µM (inactive) | > 10 µM (inactive) | > 10 µM (inactive) | > 10 µM (inactive) | > 10 µM (inactive) | > 10 µM (inactive) | > 10 µM (inactive) | > 10 µM (inactive) | > 10 µM (inactive) | > 10 µM (inactive) | > 10 µM (inactive) | > 10 µM (inactive) | > 10 µM (inactive) | > 10 µM (inactive) | > 10 µM (inactive) | > 10 µM (inactive) | > 10 µM (inactive) | > 10 µM (inactive) | > 10 µM (inactive) |
| COc1ccc(-c2cc(O)c3nc4ccccc4n3c2)cc1 | > 100 µM (inactive) | > 100 µM (inactive) | 71 µM (inactive) | > 100 µM (inactive) | > 100 µM (inactive) | > 100 µM (inactive) | > 100 µM (inactive) | > 100 µM (inactive) | > 100 µM (inactive) | > 100 µM (inactive) |  | > 100 µM (inactive) | > 100 µM (inactive) | > 100 µM (inactive) | > 100 µM (inactive) | > 100 µM (inactive) | > 100 µM (inactive) | > 100 µM (inactive) | > 100 µM (inactive) | > 100 µM (inactive) |
| CC1=NN(C(=O)c2ccccc2O)C(=O)/C1=C/c1cccc([N+](=O)[O-])c1 | > 49.7 µM (inactive) | 41.8 µM (inactive) | 0.384 µM (active) | 1.55 µM (inactive) | 7.06 µM (inactive) | 0.658 µM (active) | 2.77 µM (inactive) | 1.23 µM (inactive) | 0.385 µM (active) | 0.753 µM (active) | 0.528 µM (active) |  | 2.47 µM (inactive) | 0.189 µM (active) | 0.596 µM (active) | 0.463 µM (active) | 3.99 µM (inactive) | 0.449 µM (active) | 0.889 µM (active) | 0.408 µM (active) |
| O=[N+]([O-])c1cc(-[n+]2cc([O-])on2)ccc1F | 15.4 µM (inactive) | 18.7 µM (inactive) | 14.7 µM (inactive) | 12.8 µM (inactive) | 18.4 µM (inactive) | 18.5 µM (inactive) | 11.8 µM (inactive) | 15.8 µM (inactive) | 7.82 µM (inactive) | 18.2 µM (inactive) | 17 µM (inactive) |  | 11.7 µM (inactive) | 14.1 µM (inactive) | 3.58 µM (inactive) | 15.3 µM (inactive) | 18 µM (inactive) | 13.7 µM (inactive) | 16.4 µM (inactive) | 17.1 µM (inactive) |
| CCOC(=O)c1c(N2CCOCC2)[nH]c(=O)c(C(c2ccc(N(C)C)cc2)c2c(O)c(C(=O)OCC)c(N3CCOCC3)[nH]c2=O)c1O | > 100 µM (inactive) | > 100 µM (inactive) |  | > 100 µM (inactive) | > 100 µM (inactive) | > 100 µM (inactive) | 54.2 µM (inactive) | > 100 µM (inactive) | > 100 µM (inactive) | > 100 µM (inactive) | > 100 µM (inactive) | > 100 µM (inactive) | > 100 µM (inactive) | > 100 µM (inactive) | > 100 µM (inactive) | > 100 µM (inactive) | > 100 µM (inactive) | > 100 µM (inactive) | > 100 µM (inactive) | > 100 µM (inactive) |
| CC[C@]1(Cc2ccc(OC)c(OC)c2)CN(S(=O)(=O)c2ccc(C)cc2)C[C@@H]1OC(C)=O | > 100 µM (inactive) | > 100 µM (inactive) | 85.5 µM (inactive) | > 100 µM (inactive) | 75.7 µM (inactive) | > 100 µM (inactive) | > 100 µM (inactive) | 33 µM (inactive) | > 100 µM (inactive) | > 100 µM (inactive) | > 100 µM (inactive) | > 100 µM (inactive) | 39.2 µM (inactive) | > 100 µM (inactive) | > 100 µM (inactive) |  | > 100 µM (inactive) | 41.9 µM (inactive) | 58.7 µM (inactive) | > 100 µM (inactive) |
| CCOP(=O)(/C=C\n1ccc(=O)[nH]c1=O)OCC | > 100 µM (inactive) | > 100 µM (inactive) | > 100 µM (inactive) | > 100 µM (inactive) | > 100 µM (inactive) | > 10 µM (inactive) | > 100 µM (inactive) | > 100 µM (inactive) | > 100 µM (inactive) | > 100 µM (inactive) | > 100 µM (inactive) | > 100 µM (inactive) | > 100 µM (inactive) | > 100 µM (inactive) |  | > 100 µM (inactive) | > 100 µM (inactive) | > 100 µM (inactive) | > 100 µM (inactive) | > 100 µM (inactive) |
| CCOC(=O)/C(C(=O)Nc1cccc(C(F)(F)F)c1)=C(/N)N1CCCC1 | > 100 µM (inactive) | 42.4 µM (inactive) | > 100 µM (inactive) | > 100 µM (inactive) | > 100 µM (inactive) | > 100 µM (inactive) | > 100 µM (inactive) | 44.6 µM (inactive) | > 100 µM (inactive) | > 100 µM (inactive) | > 100 µM (inactive) | > 100 µM (inactive) | 52.6 µM (inactive) | 20.9 µM (inactive) |  | > 100 µM (inactive) | > 100 µM (inactive) | 23.4 µM (inactive) | 38 µM (inactive) | > 100 µM (inactive) |
| CCCCc1nc(C)oc1C(C)C | > 100 µM (inactive) | > 100 µM (inactive) | > 100 µM (inactive) | > 100 µM (inactive) | > 100 µM (inactive) | > 100 µM (inactive) | > 100 µM (inactive) | > 100 µM (inactive) |  | > 100 µM (inactive) | > 100 µM (inactive) | > 100 µM (inactive) | > 100 µM (inactive) | > 100 µM (inactive) | > 100 µM (inactive) | > 100 µM (inactive) | > 100 µM (inactive) | > 100 µM (inactive) | > 100 µM (inactive) | > 100 µM (inactive) |
